Laboratory results: EP0960886B1, “Peptide T and related peptides in the treatment of inflammation, including multiple sclerosis” (priority 1992, dated 1993)

What was measured:
LPS = assay: LPS-induced inflammation in mice (Example 5); type: in vivo, balb/c mice; set-up: key: indicated on a scale of (-) to (+++); indicated on a scale of (-) to (+++); indicated on a scale of (-) to (+++)
Description: Normal balb/c mice (female, 12 weeks) were administered LPS (250 µg, E. coli K-235, Sigma cat. no. L-2018) at time zero. One group of mice (50 animals) were then treated at 30 minutes intervals by i.p. injections of bovine serum albumin (BSA) (Sigma cat. no. 6793) dissolved in pyrogen-free, sterile, isotonic water (2.5 mg BSA per animal per injection, each injection containing 100 µl).
The second group of mice (50 animals) were treated at 30 minutes intervals by i.p. injections of Peptide T (Carlbiotech A/S batch 109401) dissolved in pyrogen-free, sterile, isotonic water (2.5 mg Peptide T per animal per injection, each injection 100 µl).
Glucose levels were determined on blood samples after 3 hours. Subjective parameters such as secretion from the eye, diarrhoea and general well being are indicated on a scale of (-) to (+++).

K562 target cells = assay: Macrophage cytotoxicity assay (two step, K562 target cells); type: cell-based
Description: The MO/MAC cytotoxicity assay is a two step assay. After isolation of adherent cells (mainly MO/MAC) from PBMC, MO/MAC are activated by lymphokines (including IFN gamma and LPS. Subsequent to washing which removes activators, ^3H-thymidine labelled K562 target cells were added to activated MO/MAG and incubated for 3 days. The degree of cytotoxicity was proportional to the amount of radioactive label released into the culture supernatant, is shown in the following scheme : [drawing 8]

[1] = patients with AIDS; Phase I (USC) and Phase II (Fenway Clinic); cited from earlier work
PBMC [2] = type: cell-based, human
K562 cells = assay: MO/MAC supernatant cytotoxicity against K562 cells; type: cell-based
Description: Supernatant (SN) of activated MO/MAC were collected from monolayers of PBMC derived adherent cells that had been exposed to LPS for 23 hours. This SN was tested for cytolytic activity against ^3H-thymidine labelled K562 cells in a 48 hour, 37°C cytotoxicity assay. SN were stored at 4°C overnight or stored frozen at -20°C for longer periods before using.
The ability of MO/MAC culture SN to lyse target K562 cells was determined in the presence of Peptide T. MO/MAC culture SN was used at a final dilution of 1:6 in the culture well.

human neutrophils = assay: TNF-induced neutrophil chemiluminescence (lucigenin-dependent); type: cell-based; settings: Figure 10
Description: Neutrophils. Neutrophils were isolated from whole blood from healthy blood donors. Separation was achieved by the rapid-single-step method of centrifugation of whole blood on FICOLL-HYPAQUE™. These were >99% viable and usually >98% pure.
Peptides and TNF. TNF was a recombinant product produced in E. coli. Peptide T and analogue 505 (D-Ser-Ser-D-Thr-Thr-D-Thr-Thr-Tyr-D-Thr) were resuspended in Hank's Balanced Salt Solution (HBSS).
To 100µl of 500-1000U/ml of TNF was added 10µl of peptide and after 5 min 100µl of 1x10^7 neutrophils/ml was added. The cells further incubated at 37°C/20 min and then tested for chemiluminescence activity. In some cases an agonist such as fMLP (10^-7M) was added. Chemiluminescence was measured in a luminometer (LKB). The results for Peptide T are presented in Figure 12 as peak rate of CL release. Lucigenin-dependent chemiluminescence was measured: this represents superoxide measurement. In another set of experiments the effects of analogue 505 on the LPS-induced neutrophil chemiluminescence were examined. In this case the LPS was essentially substituted for the TNF. The concentration of LPS was 0.005µg/ml.

PBMC [3] = assay: Mitogen induced proliferation of PBMC, 3H thymidine uptake, 6 day culture (Example 8); type: cell-based, human
Description: PBMC (10^5) were cultured in 200 µl RPMI containing 10% heat inactivated foetal bovine serum, 2 mM L-glutamine and gentamycin 100 µg/ml with mitogen and Peptide T added on the first day of culture. Growth was assessed in triplicate by ^3H thymidine uptake following a 6 day incubation and expressed as a proliferation index (cpm in presence of mitogen ± Peptide T […] cpm in absence of stimulation). A proliferation index >1.00 implies growth beyond that in media alone. At physiologically obtainable concentrations, Peptide T inhibits proliferation of normal (HIV seronegative) peripheral blood mononuclear cells (PBMC) without causing significant cytotoxicity as shown in Table III. This effect is long term in that Peptide T given on the first day of a six day culture will inhibit mitogen induced proliferation.

Jurkat = assay: Growth of spontaneously proliferating cell line Jurkat; type: cell-based; settings: p56^lck positive human T cell line
Description: Molt-4 is a human T lymphoma cell line, p56^lck negative, and Jurkat is a human T cell line, p56^lck positive, that will grow spontaneously in the absence of exogenous stimuli.

[4] = test system: mouse foetal hippocampal neurons; settings: cited from earlier work
[5] = t3hrs, LPS 250 µg, 2.5 mg Peptide T i.p. at 30 minutes intervals

C[C@@H](N)C(=O)N[C@@H](CO)C(=O)N[C@H](C(=O)N[C@H](C(=O)N[C@H](C(=O)N[C@@H](CC(N)=O)C(=O)N[C@@H](Cc1ccc(O)cc1)C(=O)N[C@H](C(N)=O)[C@@H](C)O)[C@@H](C)O)[C@@H](C)O)[C@@H](C)O [Peptide T, D-Ala-Ser-Thr-Thr-Thr-Asn-Tyr-Thr-NH2]
General well being (LPS; t0 (baseline)): -
Secretion from eyes (LPS; t0 (baseline)): -
Diarrhoea (LPS; t0 (baseline), LPS 250 µg at time zero): -
Diarrhoea (LPS; [5]): +
General well being (LPS; [5]): +
Secretion from eyes (LPS; [5]): +
cytotoxicity of activated MO/MAC (K562 target cells; Peptide T added concurrently with target cells or every day of the culture): able to inhibit
ability of resting MO/MAC to be activated (K562 target cells; Peptide T added concurrently with the activators): did not affect
HIV-induced neurocognitive impairment [1]: improvement
lymphocytes responding to recall antigen (MMR), antibodies to CD3 or the superantigens SEB and TSST-1 (PBMC [2]): negligible effects
concentration below which cytotoxicity returned to control levels (K562 cells; Figure 8): below 1x10^-15 M
concentration still able to block MO/MAC SN mediated lysis of K562 (K562 cells; SN at final dilution of 1:6): 0.1 pM
activation of human neutrophils by TNF (human neutrophils): inhibits activation of human neutrophils by TNF
Proliferation Index ± SD (PBMC [3]; ConA 25 µg/ml, Peptide T 10^-5 mol/l, without Peptide T 4.55±0.66): 2.72±1.20
Proliferation Index ± SD (PBMC [3]; ConA 25 µg/ml, Peptide T 10^-7 mol/l, without Peptide T 4.55±0.66): 3.19±0.06
Proliferation Index ± SD (PBMC [3]; ConA 25 µg/ml, Peptide T 10^-9 mol/l, without Peptide T 4.55±0.66): 1.98±0.04
Proliferation Index ± SD (PBMC [3]; ConA 25 µg/ml, Peptide T 10^-12 mol/l, without Peptide T 4.55±0.66): 1.69±0.48
Proliferation Index ± SD (PBMC [3]; Media (absence of mitogens), Peptide T 10^-5 mol/l): 1.14±0.15
Proliferation Index ± SD (PBMC [3]; Media (absence of mitogens), Peptide T 10^-7 mol/l): 0.73±0.16
Proliferation Index ± SD (PBMC [3]; Media (absence of mitogens), Peptide T 10^-9 mol/l): 2.17±1.10
Proliferation Index ± SD (PBMC [3]; Media (absence of mitogens), Peptide T 10^-12 mol/l): 1.52±0.15
Proliferation Index ± SD (PBMC [3]; PHA 25 µg/ml, Peptide T 10^-5 mol/l, without Peptide T 317.0±41.0): 149.0±38.4
Proliferation Index ± SD (PBMC [3]; PHA 25 µg/ml, Peptide T 10^-7 mol/l, without Peptide T 317.0±41.0): 123.6±18.1
Proliferation Index ± SD (PBMC [3]; PHA 25 µg/ml, Peptide T 10^-9 mol/l, without Peptide T 317.0±41.0): 78.6±23.1
Proliferation Index ± SD (PBMC [3]; PHA 25 µg/ml, Peptide T 10^-12 mol/l, without Peptide T 317.0±41.0): 103.8±22.8
Proliferation Index ± SD (PBMC [3]; PWM 25 µg/ml, Peptide T 10^-7 mol/l, without Peptide T 7.47±0.50): 4.47±0.36
Proliferation Index ± SD (PBMC [3]; PWM 25 µg/ml, Peptide T 10^-9 mol/l, without Peptide T 7.47±0.50): 4.69±0.42
Proliferation Index ± SD (PBMC [3]; PWM 25 µg/ml, Peptide T 10^-12 mol/l, without Peptide T 7.47±0.50): 4.15±0.23
growth of Jurkat cell line (Jurkat): did not significantly affect
neurotoxicity of CSF from a patient with AIDS dementia ([4]; CSF at 1:100,000 dilution, 44-49% killing without peptide): inhibited
gp120-induced neurotoxicity ([4]; cultures of mouse foetal hippocampal neurons): completely, antagonised
